Laboratory results reported in paper PMC4537392 (Neuropharmacology, 2015).
Each block holds one molecule with its values, some of them ahead of it.

Columns and labels:
[1] = target: T1, mGlu4 (Rattus norvegicus, UniProt P31423); assay: Temperature dependency of [3H]3 binding; conditions: 10 nM [3H]3, 100 nM Glu, 30 min
[2] = target: T1, mGlu4; assay: Ion dependency of [3H]3 binding; conditions: 10 nM [3H]3, 30 μM L-AP4, Hepes buffer with or without NaCl, MgCl2, KCl, CaCl2
[3] = target: T1, mGlu4; assay: Co-operative assay: enhancement of [3H]3 binding by orthosteric agonists
[4] = target: T1, mGlu4; assay: mGlu4 competitive binding assay against [3H]ML128; conditions: 10 nM compound

T1 sequence (P31423 33-912): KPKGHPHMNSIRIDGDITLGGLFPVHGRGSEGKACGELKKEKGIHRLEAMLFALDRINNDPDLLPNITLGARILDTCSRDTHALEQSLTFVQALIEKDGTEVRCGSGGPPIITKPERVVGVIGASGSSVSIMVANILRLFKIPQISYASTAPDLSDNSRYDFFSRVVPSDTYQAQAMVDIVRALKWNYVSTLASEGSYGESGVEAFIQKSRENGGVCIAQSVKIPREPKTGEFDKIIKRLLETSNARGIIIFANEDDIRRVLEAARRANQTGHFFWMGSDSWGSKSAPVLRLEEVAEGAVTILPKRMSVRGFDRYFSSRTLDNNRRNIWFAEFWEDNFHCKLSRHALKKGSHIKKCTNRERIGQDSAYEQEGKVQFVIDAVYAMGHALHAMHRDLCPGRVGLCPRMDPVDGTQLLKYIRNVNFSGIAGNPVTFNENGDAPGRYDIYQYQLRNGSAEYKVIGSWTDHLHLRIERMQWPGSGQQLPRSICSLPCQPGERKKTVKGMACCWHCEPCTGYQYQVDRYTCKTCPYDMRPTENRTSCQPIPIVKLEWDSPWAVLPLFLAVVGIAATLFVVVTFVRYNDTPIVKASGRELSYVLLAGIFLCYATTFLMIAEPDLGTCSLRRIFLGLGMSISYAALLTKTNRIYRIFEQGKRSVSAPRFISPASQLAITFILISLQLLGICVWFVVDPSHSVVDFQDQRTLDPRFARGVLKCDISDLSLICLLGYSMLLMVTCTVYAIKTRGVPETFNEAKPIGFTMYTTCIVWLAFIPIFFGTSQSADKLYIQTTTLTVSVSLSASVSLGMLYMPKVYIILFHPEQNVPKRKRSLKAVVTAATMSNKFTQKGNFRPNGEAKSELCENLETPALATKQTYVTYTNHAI

total amount of specific binding at +4 °C and +25 °C [1]: quite similar at +4 °C and +25 °C
specific binding at higher temperature (+45 °C) ([1]; +45 °C): drops the specific binding
ion dependency of specific binding [2]: related to chloride ion
SMILES: COc1cc(NC(=O)c2ccccn2)ccc1Cl [[^3H]3, N-(4-Chloro-3-methoxyphenyl)-2-picolinamide]

SMILES: NC(CCP(=O)(O)O)C(=O)O [compound 2, L-AP4]
logEC50 (enhancement of [3H]3 binding by orthosteric agonist) ([3]; 10 nM [3H]3, CHO cells expressing mGlu4, 30 min room temperature, n=3): −6.67 (SE 0.05)

SMILES: N[C@@H](CCC(=O)O)C(=O)O [compound 1, L-Glutamate acid]
EC50 [3]: 832 nM

bound fraction of [3H]3, single concentration assay ([4]; higher glutamate concentration, n=9, SE 1.2): 21.4%
bound fraction of [3H]3, single concentration assay ([4]; lower glutamate concentration, n=9, SE 1.4): 35.4%
SMILES: O=C(Nc1ccc(N2C(=O)c3cccc(F)c3C2=O)c(Cl)c1)c1ccccn1 [compound 4, N-(3-Chloro-4-(4-fluoro-1,3-dioxo-isoindolin-2-yl)phenyl)-2-picolinamide]
